Like-named read-outs stand apart in the source and are kept apart here.

This assay relates to ALP in NHAC (normal human articular chondrocytes). In words: Alkaline Phosphatase (ALP) activity assay: ALP staining and quantitation in NHACs (prevention of chondrocyte hypertrophy). The format is cell-based. Conditions: human IL-1 beta 10 ng/mL, 12 days; for IC50: Fast Blue RR staining, high content imaging. In short, it runs like this:
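NHACs were plated with test compound in DMEM containing 10% FBS, and human IL-1 beta was added 5 h later at 10 ng/mL final. Cultures were kept 12 days at 37° C, 5% CO2. Cells were then fixed, ALP-stained with Fast Blue RR/Naphthol AS-MX, and hypertrophic cells were imaged and quantified by high-content imaging.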

[1] abbreviates: Chondrocyte, 288 h, read-out: ALP in NHAC (% Efficacy).

In general, IC50 refers to the concentration at which inhibition is half-maximal. Read a high IC50 as a need for much substance. On to `N#Cc1ccc(C(F)(F)F)cc1NC(=O)[C@]12C[C@@]1(c1cccc(C(F)(F)F)c1)[C@H]1O[C@@H]2C[C@@H]1O` (racemic) [Example 80, rac-(1R,2R,4S,5R,6S)—N-(2-cyano-5-(trifluoromethyl)phenyl)-6-hydroxy-4-(3-(trifluoromethyl)phenyl)-8-oxatricyclo[3.2.1.02,4]octane-2-carboxamide], for which the IC50 (Chondrocyte, 288 h) is 2.2 µM. For the same molecule, the Emax under setting [1] was found to be 76%.

For `O=C(Nc1cc(C(F)(F)F)ccc1F)[C@]12C[C@@]1(c1cccc(C(F)(F)F)c1)[C@H]1O[C@@H]2C[C@@H]1O` (racemic) [Example 81, rac-(1R,2R,4S,5R,6S)—N-(2-fluoro-5-(trifluoromethyl)phenyl)-6-hydroxy-4-(3-(trifluoromethyl)phenyl)-8-oxatricyclo[3.2.1.02,4]octane-2-carboxamide], the IC50 (Chondrocyte, 288 h) was over 30 µM. Besides, under setting [1], the Emax was found to be 47%.

In turn, `O=C(Nc1cc(C(F)(F)F)ccn1)[C@]12C[C@@]1(c1cccc(C(F)(F)F)c1)[C@H]1O[C@@H]2C[C@@H]1O` (racemic) [Example 82, rac-(1R,2R,4S,5R,6S)-6-hydroxy-4-(3-(trifluoromethyl)phenyl)-N-(4-(trifluoromethyl)pyridin-2-yl)-8-oxatricyclo[3.2.1.02,4]octane-2-carboxamide] displayed an IC50 (Chondrocyte, 288 h) of over 30 µM. For the same molecule, the Emax under setting [1] was determined as 36%.

As for “(1R,2R,4S,5R,6S)—N-(2-cyano-5-(trifluoromethyl)phenyl)-6-hydroxy-4-(2-methoxypyridin-4-yl)-8-oxatricyclo[3.2.1.02,4]octane-2-carboxamide or (1S,2S,4R,5S,6R)—N-(2-cyano-5-(trifluoromethyl)phenyl)-6-hydroxy-4-(2-methoxypyridin-4-yl)-8-oxatricyclo[3.2.1.02,4]octane-2-carboxamide [Example 39a]”, the Emax result is recorded as “(90) %” and the midpoint of inhibition, the IC50, lay at 0.29 µM.

In the case of “(1R,2R,4S,5R,6S)—N-(2-cyano-5-(trifluoromethyl)phenyl)-6-hydroxy-4-(2-methoxypyridin-4-yl)-8-oxatricyclo[3.2.1.02,4]octane-2-carboxamide or (1S,2S,4R,5S,6R)—N-(2-cyano-5-(trifluoromethyl)phenyl)-6-hydroxy-4-(2-methoxypyridin-4-yl)-8-oxatricyclo[3.2.1.02,4]octane-2-carboxamide [Example 39b]”, the Emax result was “(97) %” and the IC50 stood at 0.25 µM.

The values are drawn from US12365692B2, “6-hydroxy-8-oxatricyclo[3.2.1.02,4]octane-2-carboxamide derivatives for inducing chondrogenesis for treating joint damage” (NOVARTIS AG, priority 2018, dated 2025).
